Here are results for 28 compounds from patent publication US20090012056A1, “Quinoline Compounds Capable of Binding the Cb2 and/or the 5-Ht6 Receptor” (GLAXO GROUP LIMITED, priority 2005, published 2009).

Structures can show the parent of a compound that is named as a salt. A value given as a limit tells only on which side of the number the result lay.

In the first experiment the target is T1, human cloned 5-HT6 receptors (Homo sapiens, UniProt P50406).
T1 construct: expressed in transfected cells; host or cells: HeLa cells (membranes)
T1 sequence (P50406 whole entry): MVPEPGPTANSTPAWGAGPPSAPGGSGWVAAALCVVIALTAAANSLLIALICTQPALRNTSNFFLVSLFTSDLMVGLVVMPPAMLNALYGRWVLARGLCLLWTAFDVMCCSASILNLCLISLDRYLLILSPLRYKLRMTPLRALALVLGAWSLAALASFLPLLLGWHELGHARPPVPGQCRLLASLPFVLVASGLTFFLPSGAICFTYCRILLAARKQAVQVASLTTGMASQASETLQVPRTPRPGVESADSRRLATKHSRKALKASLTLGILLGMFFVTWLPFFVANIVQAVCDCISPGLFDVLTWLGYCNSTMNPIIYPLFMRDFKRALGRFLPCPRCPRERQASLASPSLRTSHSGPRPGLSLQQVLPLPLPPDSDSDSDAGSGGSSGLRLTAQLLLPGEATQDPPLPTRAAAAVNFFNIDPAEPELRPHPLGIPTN
The experiment can be described thus: Cyclase assay (cAMP production in membranes of HeLa 5HT6 cells, antagonism of 5-HT). It is filed as biochemical. As to conditions: cyclase assay with 5-HT at 4xEC50, read-out: fpKi (functional pKi, antagonist potency) (converted). As for the experimental part:
0.5 μl of test compound in 100% dimethylsulfoxide (DMSO) was added to a white, solid 384 well assay plate (for dose response measurements the top of the concentration range is 7.5 μM final). 10 μl of washed membranes of HeLa 5HT6 cells (for preparation see WO 98/27081) in basic buffer (50 mM HEPES pH 7.4 (KOH), 1 mM MgCl2, 100 mM NaCl, 1 μl/ml 3-isobutyl-1-methylxanthine (IBMX) (Sigma-Aldrich)) was added to all wells followed by 10 μl 2×ATP buffer (100 μl/ml ATP and 1 μl/ml 3-Isobutyl-1-methylxanthine (IBMX) (Sigma-Aldrich)) with 5-HT (at a concentration equivalent to a dose response of 4×EC50). The resultant mixture was then incubated at room temperature for 30-45 minutes to allow cAMP production.
cAMP production was then measured using the DiscoveRx™ HitHunter™ chemiluminescence cAMP assay kit (DiscoveRx Corporation, 42501 Albrae Street, Fremont, Calif. 94538; Product Code: 90-0004L) or any other suitable cAMP measurement assay.
IC50 values were estimated from arbitrary designated unit (ADU) measurements from a Perkin Elmer Viewlux instrument using a four parameter logistic curve fit within EXCEL (Bowen, W. P. and Jerman, J. C. (1995), Nonlinear regression using spreadsheets. Trends in Pharmacol. Sci., 16, 413-417). Functional Ki values were calculated using the method of Cheng, Y. C. and Prussof, W. H. (Biochemical Pharmacol (1973) 22 3099-3108). pIC50 and fpKi are the negative log 10 of the molar IC50 and functional Ki respectively.
For orientation: cAMP levels reflect the balance of adenylyl cyclase and phosphodiesterase activity.
With `O=S(=O)(c1ccccc1)c1cnc2c(CN3CCCC3)cccc2c1` [Example 1, 3-(Phenylsulfonyl)-8-(1-pyrrolidinylmethyl)quinoline hydrochloride], the Ki is under 100 nM.
As for `CN1CCN(Cc2cccc3cc(S(=O)(=O)c4ccccc4)cnc23)CC1` [Example 3, 8-[(4-Methyl-1-piperazinyl)methyl]-3-(phenylsulfonyl)quinoline], the Ki was under 100 nM.
On the same count and under the same terms, in the case of `O=S(=O)(c1ccccc1)c1cnc2c(CCN3CCCC3)cccc2c1` [Example 10, 3-(Phenylsulfonyl)-8-[2-(1-pyrrolidinyl)ethylquinoline hydrochloride] it was under 100 nM; in that of `O=S(=O)(c1ccccc1)c1cnc2c(CCN3CCCCC3)cccc2c1` [Example 11, 3-(Phenylsulfonyl)-8-[2-(1-piperidiny)ethyl]quinoline hydrochloride], under 100 nM.
The same measure, in the same setting: next, `O=S(=O)(c1ccccc1)c1cnc2c(CCCN3CCCC3)cccc2c1` [Example 12, 3-(Phenylsulfonyl)-8-[3-(1-pyrrolidinyl)propyl]quinoline hydrochloride]: under 100 nM; `O=S(=O)(c1ccccc1)c1cnc2c(CCCN3CCCCC3)cccc2c1` [Example 13, 3-(Phenylsulfonyl)-8-[3-(1-piperidinyl)propyl]quinoline]: under 100 nM.
`O=S(=O)(c1ccccc1)c1cnc2c(CCCN3CCOCC3)cccc2c1` [Example 14]: the Ki is under 100 nM.
The same measure, in the same setting: in the case of `CN(C)CCCc1cccc2cc(S(=O)(=O)c3ccccc3)cnc12` [Example 15, N,N-Dimethyl-3-[3-(phenylsulfonyl)-8-quinolinyl]-1-propanamine] it was under 100 nM; in that of `CC(c1cccc2cc(S(=O)(=O)c3ccccc3)cnc12)N1CCCC1` (stereo not drawn) [Example 16, 3-(Phenylsulfonyl)-8-(1-pyrrolidin-1-ylethyl)quinoline hydrochloride], under 100 nM; in that of `CC(c1cccc2cc(S(=O)(=O)c3ccccc3)cnc12)N1CCCCC1` (stereo not drawn) [Example 17, 3-(phenylsulfonyl)-8-(1-piperidin-1-ylethyl)quinoline], under 100 nM.
Same read-out and setting: in the case of `CC(c1cccc2cc(S(=O)(=O)c3ccccc3)cnc12)N1CCOCC1` (stereo not drawn) [Example 18, 8-(1-morpholin-4-ylethyl)-3-(phenylsulfonyl)-quinoline] it was at most 1000 nM; in that of `CC(c1cccc2cc(S(=O)(=O)c3ccccc3)cnc12)N(C)C` (stereo not drawn) [Example 19, N,N-dimethyl-1-[3-(phenylsulfonyl)quinolin-8-yl]ethanamine], under 100 nM; in that of `CCN(C)C(C)c1cccc2cc(S(=O)(=O)c3ccccc3)cnc12` (stereo not drawn) [Example 21, N-Ethyl-N-methyl-1-[3-(phenylsulfonyl)quinolin-8-yl]ethanamine hydrochloride], under 100 nM.
As for `CC(C)(c1cccc2cc(S(=O)(=O)c3ccccc3)cnc12)N1CCCC1` [Example 22, 8-(1-Methyl-1-pyrrolidin-1-ylethyl)-3-(phenylsulfonyl)quinoline hydrochloride], the Ki was at most 1000 nM.

A further experiment deals with T2, human cannabinoid CB2 receptor (Homo sapiens, UniProt P34972).
T2 construct: expressed in transfected cells; host or cells: Saccharomyces cerevisiae strain MMY23
T2 sequence (P34972 whole entry): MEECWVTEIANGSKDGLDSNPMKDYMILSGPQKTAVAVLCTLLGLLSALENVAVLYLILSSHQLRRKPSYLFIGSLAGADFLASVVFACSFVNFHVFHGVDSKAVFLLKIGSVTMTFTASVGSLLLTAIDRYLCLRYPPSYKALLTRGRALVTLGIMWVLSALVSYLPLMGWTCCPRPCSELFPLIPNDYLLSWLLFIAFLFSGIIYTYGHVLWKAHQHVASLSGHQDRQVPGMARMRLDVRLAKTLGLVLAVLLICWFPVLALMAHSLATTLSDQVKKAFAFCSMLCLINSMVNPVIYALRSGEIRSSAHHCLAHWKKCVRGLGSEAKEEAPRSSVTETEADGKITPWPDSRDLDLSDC
The experiment can be described thus: Cannabinoid CB2 receptor agonist activity in yeast cells expressing the human CB2 receptor (FDGlu fluorescence). The format is cell-based. The note with it: 24 hours at 30° C., read-out: pEC50 at the CB2 receptor (agonist activity) (converted). The source says:
Yeast (Saccharomyces cerevisiae) cells expressing the human cannabinoid CB2 receptor were generated by integration of an expression cassette into the ura3 chromosomal locus of yeast strain MMY23. This cassette consisted of DNA sequence encoding the human CB2 receptor flanked by the yeast GPD promoter to the 5′ end of CB2 and a yeast transcriptional terminator sequence to the 3′ end of CB2. MMY23 expresses a yeast/mammalian chimeric G-protein alpha subunit in which the C-terminal 5 amino acids of Gpa1 are replaced with the C-terminal 5 amino acids of human Gαi1/23 (as described in Brown et al. (2000), Yeast 16:11-22). Cells were grown at 30° C. in liquid Synthetic Complete (SC) yeast media (Guthrie and Fink (1991), Methods in Enzymology, Vol. 194) lacking uracil, tryptophan, adenine and leucine to late logarithmic phase (approximately 6 OD600/ml).
Agonists were prepared as 10 mM solutions in DMSO. EC50 values (the concentration required to produce 50% maximal response) were estimated using 4 fold dilutions of between 3- and 5-fold (BiomekFX, Beckman) into DMSO. Agonist solutions in DMSO (1% final assay volume) were transferred into black microtitre plates from NUNC Greiner (384-well). Cells were suspended at a density of 0.2 OD600/ml in SC media lacking histidine, uracil, tryptophan, adenine and leucine and supplemented with 10 mM 3-aminotriazole, 0.1M sodium phosphate pH 7.0, and 120 μM fluorescein di-β-D-glucopyranoside (FDGlu). This mixture (50 ul per well) was added to agonist in the assay plates (Multidrop 384, Labsystems). After incubation at 30° C. for 24 hours, fluorescence resulting from degradation of FDGlu to fluorescein due to exoglucanase, an endogenous yeast enzyme produced during agonist-stimulated cell growth, was determined using a fluorescence microtitre plate reader (Tecan Spectrofluor or LJL Analyst excitation wavelength: 485 nm; emission wavelength: 535 nm). Fluorescence was plotted against compound concentration and iteratively curve fitted using a four parameter fit to generate a concentration effect value.
Efficacy (Emax) was calculated from the equation
Emax=Max[compound X]−Min[compound X]/Max[HU210]−Min[HU210]×100% • where Max[compound X] and Min[compound X] are the fitted maximum and minimum respectively from the concentration effect curve for compound X, and Max[HU210] and Min[HU210] are the fitted maximum and minimum respectively from the concentration effect curve for (6aR,10aR)-3-(1,1′-Dimethylheptyl)-6a,7,10,10a-tetrahydro-1-hydroxy-6,6-dimethyl-6H-dibenzo[b,d]pyran-9-methanol (HU210; available from Tocris). Equieffective molar ratio (EMR) values were calculated from the equation
EMR=EC50[compound X]/EC50[HU210] • Where EC50 [compound X] is the EC50 of compound X and EC50 [HU210] is the EC50 of HU210. • pEC50 is the negative log of the EC50.
On to `O=S(=O)(c1ccccc1)c1cnc2c(CN3CCCC3)cccc2c1` [Example 1, 3-(Phenylsulfonyl)-8-(1-pyrrolidinylmethyl)quinoline hydrochloride], for which the EC50 was at most 10000 nM.
Consider `CN1CCN(Cc2cccc3cc(S(=O)(=O)c4ccccc4)cnc23)CC1` [Example 3, 8-[(4-Methyl-1-piperazinyl)methyl]-3-(phenylsulfonyl)quinoline], for which the EC50 is over 31600 nM.
Still for that read-out and setting: in the case of `O=S(=O)(c1ccccc1)c1cnc2c(CN3CCC(F)(F)C3)cccc2c1` [Example 33, 8-[(3,3-Difluoro-1-pyrrolidinyl)methyl]-3-(phenylsulfonyl)quinoline hydrochloride] it was under 1000 nM; in that of `O=S(=O)(c1ccccc1)c1cnc2c(CN3CC(F)(F)C3)cccc2c1` [Example 34, 8-[(3,3-Difluoro-1-azetidinyl)methyl]-3-(phenylsulfonyl)quinoline hydrochloride], under 1000 nM; in that of `CC(c1cccc2cc(S(=O)(=O)c3ccccc3)cnc12)N1CC(F)(F)C1` (stereo not drawn) [Example 35, 8-[1-(3,3-Difluoro-1-azetidinyl)ethyl]-3-(phenylsulfonyl)quinoline], under 1000 nM.
On the same count and under the same terms, next, `CC(c1cccc2cc(S(=O)(=O)c3ccccc3)cnc12)N1CCC(F)(F)C1` (stereo not drawn) [Example 36, 8-[1-(3,3-Difluoro-1-pyrrolidinyl)ethyl]-3-(phenylsulfonyl)quinoline]: under 1000 nM; `CC(c1cccc2cc(S(=O)(=O)c3ccccc3)cnc12)N1CCCC(F)(F)C1` (stereo not drawn) [Example 37, 8-[1-(3,3-Difluoro-1-piperidinyl)ethyl]-3-(phenylsulfonyl)quinoline]: under 1000 nM.
Take `O=S(=O)(c1ccc(F)cc1)c1cnc2c(CN3CCCC(F)(F)C3)cccc2c1` [Example 38, 8-[(3,3-Difluoro-1-piperidinyl)methyl]-3-[(4-fluorophenyl)sulfonyl]quinoline hydrochloride]: the EC50 was under 1000 nM.
The same measure, in the same setting: next, `Cc1ccc(S(=O)(=O)c2cnc3c(CN4CCCC(F)(F)C4)cccc3c2)cc1` [Example 39, 8-[(3,3-Difluoro-1-piperidinyl)methyl]-3-[(4-methylphenyl)sulfonyl]quinoline hydrochloride]: under 1000 nM.
Still for that read-out and setting: in the case of `O=S(=O)(c1ccc(Cl)cc1)c1cnc2c(CN3CCCC(F)(F)C3)cccc2c1` [Example 40, 3-[(4-Chlorophenyl)sulfonyl]-8-[(3,3-difluoro-1-piperidinyl)methyl]quinolinehydrochloride] it was under 1000 nM; in that of `O=S(=O)(c1ccc(Br)cc1)c1cnc2c(CN3CCCC(F)(F)C3)cccc2c1` [Example 41, 3-[(4-Bromophenyl)sulfonyl]-8-[(3,3-difluoro-1-piperidinyl)methyl]quinolinehydrochloride], under 1000 nM.
The same measure, in the same setting: in the case of `COc1ccc(S(=O)(=O)c2cnc3c(CN4CCCC(F)(F)C4)cccc3c2)cc1Cl` [Example 42, 3-{[3-Chloro-4-(methyloxy)phenyl]sulfonyl}-8-[(3,3-difluoro-1-piperidinyl)methyl]quinolinehydrochloride] it was at most 10000 nM.
As for `COc1ccc(S(=O)(=O)c2cnc3c(CN4CCCC(F)(F)C4)cccc3c2)cc1NC(C)=O` [Example 43, N-[5-({8-[(3,3-Difluoro-1-piperidinyl)methyl]-3-quinolinyl}sulfonyl)-2-(methyloxy)phenyl]acetamidehydrochloride], the EC50 was under 1000 nM.
Consider `COc1ccc(S(=O)(=O)c2cnc3c(CN4CCCC(F)(F)C4)cccc3c2)cc1OC` [Example 44, 3-{[3,4-Bis(methyloxy)phenyl]sulfonyl}-8-[(3,3-difluoro-1-piperidinyl)methyl]quinolinehydrochloride], for which the EC50 was under 1000 nM.
On the same count and under the same terms, in the case of `Cc1ccc(S(=O)(=O)c2cnc3c(CN4CCCC(F)(F)C4)cccc3c2)cc1Cl` [Example 45, 3-[(3-Chloro-4-methylphenyl)sulfonyl]-8-[(3,3-difluoro-1-piperidinyl)methyl]quinolinehydrochloride] it was under 1000 nM.
As for `O=S(=O)(c1ccc2ccccc2c1)c1cnc2c(CN3CCCC(F)(F)C3)cccc2c1` [Example 46, 8-[(3,3-Difluoro-1-piperidinyl)methyl]-3-(2-naphthalenylsulfonyl)quinolinehydrochloride], the EC50 was under 1000 nM.
